Experimental data reported in patent US20260198493A1, “HYDRAZIDE COMPOUND AND AGRICULTURAL/HORTICULTURAL FUNGICIDE” (Nippon Soda Co., Ltd., priority 2022, published 2026).

Tests used:
[1] = system: Colletotrichum acutatum; assay: Fungicidal effect test against fungi causing apple anthracnose; conditions: 96 h, read-out: growth inhibition ratio
[2] = system: Fusarium graminearum; assay: microbe, parasite or virus in culture; format: cell-based; conditions: 96 h, read-out: growth inhibition ratio
[3] = system: Botrytis cinerea; assay: Control test of cucumber gray mold (sprayed young cucumber seedlings); format: in vivo; conditions: 96 h, four days after inoculation; for pest or weed control at 25 ppm: 25 ppm by mass spray; for pest or weed control at 125 ppm: 125 ppm by mass spray
Experimental: Then, the drug liquid was sprayed onto young cucumber seedlings cultivated in a nursery pot (variety “Jihai”-based, cotyledon stage), and then air-dried. […] They were left still in a moist room at 20° C. Four days after inoculation, leaves of the young cucumber seedlings were visually observed, and the control value was calculated from the lesion area ratio in accordance with the following equation. [formula]

[4] = system: Glomerella cingulata; assay: Fungicidal effect test against fungi causing grape ripe rot disease; conditions: Colletotrichum gloeosporioides, 72 h, read-out: growth inhibition ratio
[5] = system: Botrytis cinerea; format: cell-based; conditions: 120 h, 25 ppm by volume, Vogel medium, 20° C., five days, dark, read-out: growth inhibition ratio
[6] = system: Venturia inaequalis; assay: Control test of apple scab disease (sprayed young apple seedlings); format: in vivo; conditions: 125 ppm by mass spray, 12 to 14 days after inoculation
[7] = system: Erysiphe graminis f.sp.tritici; assay: Control test of wheat powdery mildew disease (sprayed young wheat seedlings); format: in vivo; conditions: Blumeria graminis, 144 h, 125 ppm by mass spray, six days after inoculation

COC(=O)N(Cc1ccc(OC)cc1C)NC(=O)c1ccncc1Oc1cccc(Br)c1F [b-148]
≥ 75%: inhibition of growth at 25 ppm [1] | inhibition of growth at 25 ppm [2] | pest or weed control at 25 ppm [3] | pest or weed control at 125 ppm [3] | inhibition of growth at 25 ppm [4] | inhibition of growth at 25 ppm [5] | pest or weed control at 125 ppm [6] | pest or weed control at 125 ppm [7]

COC(=O)N(Cc1ccc(C)cc1Cl)NC(=O)c1c(C)cnnc1Oc1cccc(C2CC2)c1F [b-177]
≥ 75%: inhibition of growth at 25 ppm [1] | inhibition of growth at 25 ppm [2] | pest or weed control at 25 ppm [3] | pest or weed control at 125 ppm [3] | inhibition of growth at 25 ppm [4] | inhibition of growth at 25 ppm [5] | pest or weed control at 125 ppm [6] | pest or weed control at 125 ppm [7]

COC(=O)N(Cc1ccc(C)cc1C)NC(=O)c1cc(Br)ncc1Oc1cccc(Br)c1F [b-111]
≥ 75%: inhibition of growth at 25 ppm [1] | inhibition of growth at 25 ppm [2] | pest or weed control at 125 ppm [3] | inhibition of growth at 25 ppm [4] | inhibition of growth at 25 ppm [5] | pest or weed control at 125 ppm [6] | pest or weed control at 125 ppm [7]

Cc1ccc(CN(NC(=O)c2cc(C)nnc2Oc2cccc(C3CC3)c2F)C(=O)OC2COC2)c(C)c1 [b-232]
≥ 75%: inhibition of growth at 25 ppm [1] | inhibition of growth at 25 ppm [2] | pest or weed control at 25 ppm [3] | pest or weed control at 125 ppm [3] | inhibition of growth at 25 ppm [4] | inhibition of growth at 25 ppm [5] | pest or weed control at 125 ppm [6] | pest or weed control at 125 ppm [7]

COC(=O)N(Cc1ccc(C)cc1C)NC(=O)c1cc(Cl)nnc1Oc1cccc(C2CC2)c1F [b-28]
≥ 75%: inhibition of growth at 25 ppm [1] | inhibition of growth at 25 ppm [2] | pest or weed control at 25 ppm [3] | pest or weed control at 125 ppm [3] | inhibition of growth at 25 ppm [4] | inhibition of growth at 25 ppm [5] | pest or weed control at 125 ppm [6] | pest or weed control at 125 ppm [7]

COC(=O)N(Cc1ccc(C)cc1C)NC(=O)c1cc(C)ncc1Oc1cccc(Br)c1 [b-31]
≥ 75%: inhibition of growth at 25 ppm [1] | inhibition of growth at 25 ppm [2] | pest or weed control at 25 ppm [3] | pest or weed control at 125 ppm [3] | inhibition of growth at 25 ppm [4] | inhibition of growth at 25 ppm [5] | pest or weed control at 125 ppm [6] | pest or weed control at 125 ppm [7]

COC(=O)N(Cc1ccc(C)cc1C)NC(=O)c1cc(C)nnc1Oc1csc(C(F)(F)F)c1 [b-124, Methyl 1-(2,4-dimethylbenzyl)-2-(6-methyl-3-((5-(trifluoromethyl)thiophen-3-yl)oxy)pyridazine-4-carbonyl)hydrazine-1-carboxylate]
≥ 75%: inhibition of growth at 25 ppm [1] | inhibition of growth at 25 ppm [2] | pest or weed control at 125 ppm [3] | inhibition of growth at 25 ppm [4] | inhibition of growth at 25 ppm [5] | pest or weed control at 125 ppm [6] | pest or weed control at 125 ppm [7]

CCc1cc(C(=O)NN(Cc2ccc(OC)cc2C)C(=O)OC)c(Oc2cccc(C3CC3)c2F)nn1 [b-154]
≥ 75%: inhibition of growth at 25 ppm [1] | inhibition of growth at 25 ppm [2] | pest or weed control at 25 ppm [3] | pest or weed control at 125 ppm [3] | inhibition of growth at 25 ppm [4] | inhibition of growth at 25 ppm [5] | pest or weed control at 125 ppm [6] | pest or weed control at 125 ppm [7]

COC(=O)N(Cc1ccc(C)cc1C)NC(=O)c1ccncc1Oc1cccc(Cl)c1F [b-187]
≥ 75%: inhibition of growth at 25 ppm [1] | inhibition of growth at 25 ppm [2] | pest or weed control at 25 ppm [3] | pest or weed control at 125 ppm [3] | inhibition of growth at 25 ppm [4] | inhibition of growth at 25 ppm [5] | pest or weed control at 125 ppm [6] | pest or weed control at 125 ppm [7]

COC(=O)N(Cc1ccc(C)cc1C)NC(=O)c1cc(C)ncc1Oc1cccc(C2CC2)c1F [b-16]
≥ 75%: inhibition of growth at 25 ppm [1] | inhibition of growth at 25 ppm [2] | pest or weed control at 25 ppm [3] | pest or weed control at 125 ppm [3] | inhibition of growth at 25 ppm [4] | inhibition of growth at 25 ppm [5] | pest or weed control at 125 ppm [6] | pest or weed control at 125 ppm [7]

CCc1cncc(Oc2cccc(C3CC3)c2F)c1C(=O)NN(Cc1ccc(C)cc1C)C(=O)OC [b-212]
≥ 75%: inhibition of growth at 25 ppm [1] | inhibition of growth at 25 ppm [2] | pest or weed control at 25 ppm [3] | pest or weed control at 125 ppm [3] | inhibition of growth at 25 ppm [4] | inhibition of growth at 25 ppm [5] | pest or weed control at 125 ppm [6] | pest or weed control at 125 ppm [7]

COC(=O)N(Cc1ccc(OC)cc1Cl)NC(=O)c1cc(C)nnc1Oc1cccc(C2CC2)c1F [b-171]
≥ 75%: inhibition of growth at 25 ppm [1] | inhibition of growth at 25 ppm [2] | pest or weed control at 25 ppm [3] | pest or weed control at 125 ppm [3] | inhibition of growth at 25 ppm [4] | inhibition of growth at 25 ppm [5] | pest or weed control at 125 ppm [6] | pest or weed control at 125 ppm [7]

COC(=O)N(Cc1ccc(C)cc1C)NC(=O)c1c(Oc2cccc(C3CC3)c2)cnnc1OC(C)C [b-223]
≥ 75%: inhibition of growth at 25 ppm [1] | inhibition of growth at 25 ppm [2] | pest or weed control at 25 ppm [3] | pest or weed control at 125 ppm [3] | inhibition of growth at 25 ppm [4] | inhibition of growth at 25 ppm [5] | pest or weed control at 125 ppm [6] | pest or weed control at 125 ppm [7]

COC(=O)N(Cc1ccc(C)cc1Cl)NC(=O)c1c(Oc2cccc(Cl)c2F)nnc(Cl)c1C [b-176]
≥ 75%: inhibition of growth at 25 ppm [1] | inhibition of growth at 25 ppm [2] | pest or weed control at 25 ppm [3] | pest or weed control at 125 ppm [3] | inhibition of growth at 25 ppm [4] | inhibition of growth at 25 ppm [5] | pest or weed control at 125 ppm [6] | pest or weed control at 125 ppm [7]

CCOC(=O)N(Cc1ccc(C)cc1C)NC(=O)c1nc(C)ncc1Oc1cccc(C2CC2)c1F [b-43]
≥ 75%: inhibition of growth at 25 ppm [1] | inhibition of growth at 25 ppm [2] | pest or weed control at 25 ppm [3] | pest or weed control at 125 ppm [3] | inhibition of growth at 25 ppm [4] | inhibition of growth at 25 ppm [5] | pest or weed control at 125 ppm [6] | pest or weed control at 125 ppm [7]

Cc1cccc(Oc2nnc(C)cc2C(=O)NN(Cc2ccc(C)cc2C)C(=O)O)c1 [b-117]
≥ 75%: inhibition of growth at 25 ppm [1] | inhibition of growth at 25 ppm [2] | pest or weed control at 25 ppm [3] | pest or weed control at 125 ppm [3] | inhibition of growth at 25 ppm [4] | inhibition of growth at 25 ppm [5] | pest or weed control at 125 ppm [6] | pest or weed control at 125 ppm [7]

COC(=O)N(Cc1ccc(C)cc1C)NC(=O)c1cc(C)nnc1Oc1cccc(C2CC2)c1 [b-80]
≥ 75%: inhibition of growth at 25 ppm [1] | inhibition of growth at 25 ppm [2] | pest or weed control at 25 ppm [3] | pest or weed control at 125 ppm [3] | inhibition of growth at 25 ppm [4] | inhibition of growth at 25 ppm [5] | pest or weed control at 125 ppm [6] | pest or weed control at 125 ppm [7]

COC(=O)N(Cc1ccc(C)cc1C)NC(=O)c1ccncc1Oc1cccc(Br)c1F [b-147]
≥ 75%: inhibition of growth at 25 ppm [1] | inhibition of growth at 25 ppm [2] | pest or weed control at 25 ppm [3] | pest or weed control at 125 ppm [3] | inhibition of growth at 25 ppm [4] | inhibition of growth at 25 ppm [5] | pest or weed control at 125 ppm [6] | pest or weed control at 125 ppm [7]

COC(=O)N(Cc1ccc(Cl)cc1C)NC(=O)c1cc(C)ncc1Oc1cccc(C2CC2)c1F [b-77]
≥ 75%: inhibition of growth at 25 ppm [1] | inhibition of growth at 25 ppm [2] | pest or weed control at 25 ppm [3] | pest or weed control at 125 ppm [3] | inhibition of growth at 25 ppm [4] | inhibition of growth at 25 ppm [5] | pest or weed control at 125 ppm [6] | pest or weed control at 125 ppm [7]
